“And” between values parts separate entries of the source, which are not always exact repeats. Equal values may be shown once. Toxic doses and inconclusive results are not listed.
Test system: CD2F1 mice, L1210 leukemia sc, survival T/C
Assay: NCI In Vivo Anticancer Drug Screen. Data for tumor model L1210 Leukemia (subcutaneous) in CD2F1 (CDF1) mice
Details: endpoint: median survival time, higher = longer survival
Procedure: The antitumor activity of compounds was measured in mice bearing transplantable tumors. Survival or tumor size were measured and the results are expressed as the measurement made in the treated group (T) divided by the measurement made in the vehicle treated control group (C). The tumor model used in this assay is L1210 Leukemia (subcutaneous) in CD2F1 (CDF1) mice

[1] = dose: 0.45 mg/kg/injection, schedule: Q01DX009 (ip), vehicle: saline
[2] = dose: 0.45 mg/kg/injection, schedule: Q01DX009 (sc), vehicle: saline
[3] = dose: 0.8 mg/kg/injection, schedule: Q01DX009 (ip), vehicle: saline

## Cc1ccc(C(=O)Nc2ccc(S(=O)(=O)O)c3cc(S(=O)(=O)O)cc(S(=O)(=O)O)c23)cc1NC(=O)c1cccc(NC(=O)Nc2cccc(C(=O)Nc3cc(C(=O)Nc4ccc(S(=O)(=O)O)c5cc(S(=O)(=O)O)cc(S(=O)(=O)O)c45)ccc3C)c2)c1
dose: 10.0 mg/kg/injection, schedule: Q07DX003 (iv), vehicle: water
  T/C: 97 % of control
dose: 20.0 mg/kg/injection, schedule: Q07DX003 (iv), vehicle: water
  T/C: 96 % of control
dose: 40.0 mg/kg/injection, schedule: Q07DX003 (iv), vehicle: water
  T/C: 100 % of control

## Nc1ccn([C@@H]2C=C(CO)[C@@H](O)[C@H]2O)c(=O)n1
dose: 0.13 mg/kg/injection, schedule: Q03HX024 (ip), vehicle: saline
  T/C: 116 % of control
dose: 0.19 mg/kg/injection, schedule: Q03HX024 (ip), vehicle: saline
  T/C: 112 % of control
dose: 0.3 mg/kg/injection, schedule: Q06HX018 (ip), vehicle: saline
  T/C: 108 % of control
dose: 0.44 mg/kg/injection, schedule: Q01DX009 (ip), vehicle: saline
  T/C: 100 % of control and 103 % of control
dose: 0.44 mg/kg/injection, schedule: Q03HX016 (ip), vehicle: saline
  T/C: 119 % of control
dose: 0.44 mg/kg/injection, schedule: Q03HX024 (ip), vehicle: saline
  T/C: 89 % of control
[1]
  T/C: 103 % of control and 113 % of control (2×)
[2]
  T/C: 99 % of control
dose: 0.45 mg/kg/injection, schedule: Q03HX008 (ip), vehicle: saline
  T/C: 118 % of control
dose: 0.45 mg/kg/injection, schedule: Q06HX018 (ip), vehicle: saline
  T/C: 163 % of control
dose: 0.67 mg/kg/injection, schedule: Q03HX008 (ip), vehicle: saline
  T/C: 119 % of control
dose: 0.67 mg/kg/injection, schedule: Q06HX018 (ip), vehicle: saline
  T/C: 214 % of control
[3]
  T/C: 157 % of control
dose: 0.99 mg/kg/injection, schedule: Q03HX008 (ip), vehicle: saline
  T/C: 120 % of control
dose: 1.0 mg/kg/injection, schedule: Q01DX005 (iv), vehicle: saline
  T/C: 151 % of control
dose: 1.0 mg/kg/injection, schedule: Q01DX009 (sc), vehicle: saline
  T/C: 180 % of control
dose: 1.0 mg/kg/injection, schedule: Q03HX016 (ip), vehicle: saline
  T/C: 161 % of control
dose: 1.0 mg/kg/injection, schedule: Q06HX018 (ip), vehicle: saline
  T/C: 108 % of control
dose: 1.2 mg/kg/injection, schedule: Q01DX009 (ip), vehicle: saline
  T/C: 189 % of control
dose: 1.49 mg/kg/injection, schedule: Q01DX005 (iv), vehicle: saline
  T/C: 97 % of control
dose: 1.49 mg/kg/injection, schedule: Q03HX008 (ip), vehicle: saline
  T/C: 89 % of control
dose: 1.5 mg/kg/injection, schedule: Q01DX005 (iv), vehicle: saline
  T/C: 168 % of control
dose: 1.5 mg/kg/injection, schedule: Q01DX009 (sc), vehicle: saline
  T/C: 182 % of control
dose: 2.2 mg/kg/injection, schedule: Q01DX005 (iv), vehicle: saline
  T/C: 162 % of control
dose: 2.23 mg/kg/injection, schedule: Q01DX005 (iv), vehicle: saline
  T/C: 89 % of control
dose: 2.25 mg/kg/injection, schedule: Q01DX009 (sc), vehicle: saline
  T/C: 97 % of control
dose: 3.0 mg/kg/injection, schedule: Q03HX008 (ip), vehicle: saline
  T/C: 154 % of control
dose: 3.3 mg/kg/injection, schedule: Q01DX005 (iv), vehicle: saline
  T/C: 90 % of control
dose: 4.5 mg/kg/injection, schedule: Q03HX008 (ip), vehicle: saline
  T/C: 113 % of control
dose: 4.8 mg/kg/injection, schedule: Q01DX005 (iv), vehicle: saline
  T/C: 86 % of control
dose: 5.0 mg/kg/injection, schedule: Q01DX001 (ip), vehicle: saline
  T/C: 118 % of control
dose: 9.0 mg/kg/injection, schedule: Q03HX004 (iv), vehicle: saline
  T/C: 152 % of control
dose: 10.7 mg/kg/injection, schedule: Q01DX001 (ip), vehicle: saline
  T/C: 123 % of control
dose: 11.2 mg/kg/injection, schedule: Q01DX001 (ip), vehicle: saline
  T/C: 110 % of control and 123 % of control
dose: 11.2 mg/kg/injection, schedule: Q01DX001 (iv), vehicle: saline
  T/C: 119 % of control
dose: 16.9 mg/kg/injection, schedule: Q01DX001 (iv), vehicle: saline
  T/C: 100 % of control
dose: 36.0 mg/kg/injection, schedule: Q01DX001 (ip), vehicle: saline
  T/C: 154 % of control
dose: 37.9 mg/kg/injection, schedule: Q01DX001 (iv), vehicle: saline
  T/C: 90 % of control
dose: 54.0 mg/kg/injection, schedule: Q01DX001 (ip), vehicle: saline
  T/C: 164 % of control
dose: 54.0 mg/kg/injection, schedule: Q01DX001 (iv), vehicle: saline
  T/C: 158 % of control
dose: 56.8 mg/kg/injection, schedule: Q01DX001 (iv), vehicle: saline
  T/C: 88 % of control
dose: 81.0 mg/kg/injection, schedule: Q01DX001 (ip), vehicle: saline
  T/C: 106 % of control
dose: 81.0 mg/kg/injection, schedule: Q01DX001 (iv), vehicle: saline
  T/C: 103 % of control
dose: 121.0 mg/kg/injection, schedule: Q01DX001 (iv), vehicle: saline
  T/C: 91 % of control
dose: 88.0 micrograms/kg/injection, schedule: Q03HX024 (ip), vehicle: saline
  T/C: 112 % of control
dose: 200.0 micrograms/kg/injection, schedule: Q03HX024 (ip), vehicle: saline
  T/C: 166 % of control

## COc1cccc2c1C(=O)c1c(O)c3c(c(O)c1C2=O)C[C@@](O)(C(=O)CO)C[C@@H]3OC1CC(OC(C)=O)C(OC(C)=O)C(C)O1 (stereo not given in full)
dose: 1.56 mg/kg/injection, schedule: Q01DX009 (ip), vehicle: distilled water + Tween-80
  T/C: 106 % of control
dose: 1.57 mg/kg/injection, schedule: Q01DX009 (ip), vehicle: distilled water + Tween-80
  T/C: 105 % of control
dose: 3.13 mg/kg/injection, schedule: Q01DX009 (ip), vehicle: distilled water + Tween-80
  T/C: 105 % of control and 114 % of control
dose: 12.5 mg/kg/injection, schedule: Q01DX009 (ip), vehicle: distilled water + Tween-80
  T/C: 182 % of control and 195 % of control

## CCOC(=O)C(CC(C)C)NC(=O)C(Cc1ccc(N(CCCl)CCCl)cc1)NC(C)=O (stereo not given)
dose: 1.0 mg/kg/injection, schedule: Q01DX009 (sc), vehicle: Klucel (hydroxypropylcellulose) (HPC)
  T/C: 102 % of control and 103 % of control
dose: 2.0 mg/kg/injection, schedule: Q01DX009 (sc), vehicle: Klucel (hydroxypropylcellulose) (HPC)
  T/C: 103 % of control and 98 % of control
dose: 4.0 mg/kg/injection, schedule: Q01DX009 (sc), vehicle: Klucel (hydroxypropylcellulose) (HPC)
  T/C: 104 % of control and 105 % of control
dose: 8.0 mg/kg/injection, schedule: Q01DX009 (sc), vehicle: Klucel (hydroxypropylcellulose) (HPC)
  T/C: 107 % of control and 98 % of control
dose: 16.0 mg/kg/injection, schedule: Q01DX009 (sc), vehicle: Klucel (hydroxypropylcellulose) (HPC)
  T/C: 103 % of control and 109 % of control
dose: 28.5 mg/kg/injection, schedule: Q01DX009 (sc), vehicle: Klucel (hydroxypropylcellulose) (HPC)
  T/C: 110 % of control
dose: 32.0 mg/kg/injection, schedule: Q01DX009 (sc), vehicle: Klucel (hydroxypropylcellulose) (HPC)
  T/C: 100 % of control and 112 % of control
dose: 42.7 mg/kg/injection, schedule: Q01DX009 (sc), vehicle: Klucel (hydroxypropylcellulose) (HPC)
  T/C: 121 % of control
dose: 64.0 mg/kg/injection, schedule: Q01DX009 (sc), vehicle: Klucel (hydroxypropylcellulose) (HPC)
  T/C: 118 % of control and 124 % of control
dose: 113.8 mg/kg/injection, schedule: Q01DX009 (sc), vehicle: Klucel (hydroxypropylcellulose) (HPC)
  T/C: 113 % of control
dose: 128.0 mg/kg/injection, schedule: Q01DX009 (sc), vehicle: Klucel (hydroxypropylcellulose) (HPC)
  T/C: 113 % of control and 122 % of control
dose: 170.7 mg/kg/injection, schedule: Q01DX009 (sc), vehicle: Klucel (hydroxypropylcellulose) (HPC)
  T/C: 120 % of control
dose: 384.0 mg/kg/injection, schedule: Q01DX009 (sc), vehicle: Klucel (hydroxypropylcellulose) (HPC)
  T/C: 158 % of control

## C1CN1c1nc(N2CC2)nc(N2CC2)n1
dose: 0.1 mg/kg/injection, schedule: Q01DX009 (ip), vehicle: saline
  T/C: 110 % of control
dose: 0.1 mg/kg/injection, schedule: Q01DX009 (sc), vehicle: saline
  T/C: 108 % of control
dose: 0.2 mg/kg/injection, schedule: Q01DX009 (ip), vehicle: saline
  T/C: 117 % of control
dose: 0.2 mg/kg/injection, schedule: Q01DX009 (sc), vehicle: saline
  T/C: 118 % of control
dose: 0.27 mg/kg/injection, schedule: Q01DX009 (ip), vehicle: saline
  T/C: 114 % of control
dose: 0.27 mg/kg/injection, schedule: Q01DX009 (sc), vehicle: saline
  T/C: 110 % of control
dose: 0.4 mg/kg/injection, schedule: Q01DX009 (ip), vehicle: saline
  T/C: 151 % of control
[1]
  T/C: 157 % of control
[2]
  T/C: 168 % of control
dose: 0.6 mg/kg/injection, schedule: Q01DX009 (ip), vehicle: saline
  T/C: 184 % of control
dose: 0.6 mg/kg/injection, schedule: Q01DX009 (sc), vehicle: saline
  T/C: 180 % of control
[3]
  T/C: 119 % of control
dose: 0.9 mg/kg/injection, schedule: Q01DX009 (ip), vehicle: saline
  T/C: 101 % of control
dose: 0.9 mg/kg/injection, schedule: Q01DX009 (sc), vehicle: saline
  T/C: 113 % of control

From PubChem BioAssay AID258 (DTP/NCI, 2004)
